pEC50: −log10 of the molar value. “Also recorded” adds a separate entry of the source. Like-named read-outs stand apart in the source and are kept apart here. Each block holds one compound with its values, some of them ahead of it.
Experiments:
[1] = system: mice; conditions: lacrimal gland ablation, three times daily; cited from earlier work
[2] = system: mice; conditions: cited from earlier work
[3] = molecular target: CFTR (Homo sapiens, UniProt P13569); conditions: cited from earlier work; for extent of CFTR activation / pEC50: cell cultures; for pEC50: read-out: EC50 of CFTR activation
Sequence of CFTR (Homo sapiens, UniProt P13569) (P13569 whole entry, species assumed): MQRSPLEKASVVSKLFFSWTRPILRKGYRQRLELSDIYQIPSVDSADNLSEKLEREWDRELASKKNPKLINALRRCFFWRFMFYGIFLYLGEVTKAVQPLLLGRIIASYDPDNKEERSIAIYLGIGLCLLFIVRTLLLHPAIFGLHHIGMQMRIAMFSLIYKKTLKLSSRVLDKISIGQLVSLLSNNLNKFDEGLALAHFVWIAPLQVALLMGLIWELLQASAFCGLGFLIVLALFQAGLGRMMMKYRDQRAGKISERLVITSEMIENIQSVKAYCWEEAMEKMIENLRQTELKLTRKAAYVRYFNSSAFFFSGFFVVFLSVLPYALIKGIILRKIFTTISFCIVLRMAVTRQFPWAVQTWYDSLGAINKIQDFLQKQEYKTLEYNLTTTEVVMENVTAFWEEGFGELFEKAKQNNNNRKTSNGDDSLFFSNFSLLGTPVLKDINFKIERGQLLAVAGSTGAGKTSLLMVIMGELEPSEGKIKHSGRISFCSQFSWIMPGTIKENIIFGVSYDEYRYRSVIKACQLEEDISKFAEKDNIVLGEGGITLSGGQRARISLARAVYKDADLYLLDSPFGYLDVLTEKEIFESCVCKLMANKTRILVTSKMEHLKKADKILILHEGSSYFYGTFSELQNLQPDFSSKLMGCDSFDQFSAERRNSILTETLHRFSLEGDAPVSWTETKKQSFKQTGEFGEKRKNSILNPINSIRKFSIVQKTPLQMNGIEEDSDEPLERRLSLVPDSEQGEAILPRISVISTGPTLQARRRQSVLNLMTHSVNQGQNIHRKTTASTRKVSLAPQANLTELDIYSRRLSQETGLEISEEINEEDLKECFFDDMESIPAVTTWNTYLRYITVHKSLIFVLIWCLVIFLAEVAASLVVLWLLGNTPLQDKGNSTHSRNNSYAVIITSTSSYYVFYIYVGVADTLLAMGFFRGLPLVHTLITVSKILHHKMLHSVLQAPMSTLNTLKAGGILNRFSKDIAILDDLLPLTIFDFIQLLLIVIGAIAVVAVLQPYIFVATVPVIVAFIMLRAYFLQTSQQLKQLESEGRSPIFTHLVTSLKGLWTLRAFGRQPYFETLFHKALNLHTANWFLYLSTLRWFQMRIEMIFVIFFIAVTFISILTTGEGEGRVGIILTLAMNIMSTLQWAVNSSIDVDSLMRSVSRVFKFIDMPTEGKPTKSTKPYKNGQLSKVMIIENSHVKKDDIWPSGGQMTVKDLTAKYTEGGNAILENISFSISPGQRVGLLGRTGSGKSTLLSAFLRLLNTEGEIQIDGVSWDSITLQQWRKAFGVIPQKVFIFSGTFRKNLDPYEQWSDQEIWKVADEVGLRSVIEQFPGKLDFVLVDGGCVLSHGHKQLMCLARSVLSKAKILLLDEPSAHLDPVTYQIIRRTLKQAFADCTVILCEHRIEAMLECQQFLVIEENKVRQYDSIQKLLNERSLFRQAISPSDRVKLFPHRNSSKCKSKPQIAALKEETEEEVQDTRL

[4] = molecular target: P2Y2 receptors (Homo sapiens, UniProt P41231); conditions: phase III trials in the United States; cited from earlier work
Sequence of P2Y2 receptors (P41231 whole entry): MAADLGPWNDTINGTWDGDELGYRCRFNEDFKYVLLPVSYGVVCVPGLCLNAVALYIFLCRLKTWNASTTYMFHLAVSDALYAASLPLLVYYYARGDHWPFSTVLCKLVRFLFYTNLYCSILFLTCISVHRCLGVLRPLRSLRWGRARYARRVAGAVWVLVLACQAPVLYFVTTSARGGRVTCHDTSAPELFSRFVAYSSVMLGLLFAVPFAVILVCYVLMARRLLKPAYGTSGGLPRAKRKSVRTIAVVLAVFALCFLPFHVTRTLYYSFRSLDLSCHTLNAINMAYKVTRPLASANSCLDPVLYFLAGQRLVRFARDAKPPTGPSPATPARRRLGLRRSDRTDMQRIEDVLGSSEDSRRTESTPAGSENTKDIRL

[5] = system: cAMP; conditions: prior studies; cited from earlier work
[6] = pharmacokinetics in tear fluid by LC/MS; type: in vivo; conditions: rabbit
Experimental: Compound A was quantified by liquid chromatography/mass spectroscopy (LC/MS) at 15 min, 1 hour, 2 hours, 6 hours and 24 hours after a single, 3-nmol topical dose. To recover Compound A at indicated times, three eye washes of 30 μL sterile PBS were done with solution recovered from the lateral and medial canthi after manual eyelid blinking using 50-μL glass capillary tubes. Pooled washes were diluted in three volumes of ethyl acetate, centrifuged at 13,000 rpm for 15 min, and the collected supernatant was analyzed by LC/MS (Waters 2695 HPLC with Micromass ZQ).^14 LC was done on an Xterra MS C18 column (2.1 mm×100 mm, 3.5 μm) with 0.2 mL/min water/acetonitrile containing 0.1% formic acid, 12 min linear gradient, 5-95% acetonitrile.
Corresponding compound concentrations in tear fluid (open circles, right ordinate) were estimated using tear volumes deduced from STT measurements in FIG. 2A.

[7] = liver; in vitro microsomal stability; cited from earlier work
[8] = system: rabbits; assay: chronic administration, tear volume by STT; type: in vivo; conditions: rabbit, 3 nmol twice-daily for 28 days
Experimental: (§1) Tear production was measured using the anesthetized Schirmer Tear Test (STT, Eagle Vision, Memphis TN). To minimize reflex tearing, one drop of 0.5% proparacaine hydrochloride (Akorn, Lake Forest, TL) was placed onto the corneal surface and excess fluid was absorbed at the medial canthus using eye spear sponges (Fine Science Tools, Foster City, CA). After 5 min the notched strip was inserted into the lower lateral conjunctival fornix, maintaining contact with the lateral cornea. The wetted length (mm) of the strip indicated by blue dye appearance was read after 5 min.
In chronic treatment studies, Compound A (3 nmol, or formulation control) was given twice daily (8 am and 4 pm) for 28 days. Two mL of blood was collected from the marginal ear vein in EDTA tubes. Rabbits were then euthanized using 150 mg/kg euthasol, and ocular tissues, serum and peripheral organs were collected. […]
In chronic treatment studies, eyes were treated twice daily for 28 days as described above. STT, intraocular pressure (IOP), and central corneal thickness were measured on days 0, 7, 14, 21 and 28. […] IOP was measured with a Tonolab rebound tonometer (Colonial Medical Supply, Windham, NH). Central corneal thickness was measured using the Corneo-Gage Plus 2 pachymeter (Sonogage Inc., Cleveland, OH). […]

[9] = molecular target: T1, CFTR (Oryctolagus cuniculus, UniProt Q00554); assay: short-circuit current in freshly isolated rabbit conjunctiva, CFTR; type: cell-based
T1 construct: ocular surface PD measurements provide information about CFTR function in its native environment; from tissue; host or cells: rabbit ocular surface in vivo (cornea and conjunctiva); freshly isolated rabbit forniceal and palpebral conjunctiva
T1 sequence (Q00554 whole entry): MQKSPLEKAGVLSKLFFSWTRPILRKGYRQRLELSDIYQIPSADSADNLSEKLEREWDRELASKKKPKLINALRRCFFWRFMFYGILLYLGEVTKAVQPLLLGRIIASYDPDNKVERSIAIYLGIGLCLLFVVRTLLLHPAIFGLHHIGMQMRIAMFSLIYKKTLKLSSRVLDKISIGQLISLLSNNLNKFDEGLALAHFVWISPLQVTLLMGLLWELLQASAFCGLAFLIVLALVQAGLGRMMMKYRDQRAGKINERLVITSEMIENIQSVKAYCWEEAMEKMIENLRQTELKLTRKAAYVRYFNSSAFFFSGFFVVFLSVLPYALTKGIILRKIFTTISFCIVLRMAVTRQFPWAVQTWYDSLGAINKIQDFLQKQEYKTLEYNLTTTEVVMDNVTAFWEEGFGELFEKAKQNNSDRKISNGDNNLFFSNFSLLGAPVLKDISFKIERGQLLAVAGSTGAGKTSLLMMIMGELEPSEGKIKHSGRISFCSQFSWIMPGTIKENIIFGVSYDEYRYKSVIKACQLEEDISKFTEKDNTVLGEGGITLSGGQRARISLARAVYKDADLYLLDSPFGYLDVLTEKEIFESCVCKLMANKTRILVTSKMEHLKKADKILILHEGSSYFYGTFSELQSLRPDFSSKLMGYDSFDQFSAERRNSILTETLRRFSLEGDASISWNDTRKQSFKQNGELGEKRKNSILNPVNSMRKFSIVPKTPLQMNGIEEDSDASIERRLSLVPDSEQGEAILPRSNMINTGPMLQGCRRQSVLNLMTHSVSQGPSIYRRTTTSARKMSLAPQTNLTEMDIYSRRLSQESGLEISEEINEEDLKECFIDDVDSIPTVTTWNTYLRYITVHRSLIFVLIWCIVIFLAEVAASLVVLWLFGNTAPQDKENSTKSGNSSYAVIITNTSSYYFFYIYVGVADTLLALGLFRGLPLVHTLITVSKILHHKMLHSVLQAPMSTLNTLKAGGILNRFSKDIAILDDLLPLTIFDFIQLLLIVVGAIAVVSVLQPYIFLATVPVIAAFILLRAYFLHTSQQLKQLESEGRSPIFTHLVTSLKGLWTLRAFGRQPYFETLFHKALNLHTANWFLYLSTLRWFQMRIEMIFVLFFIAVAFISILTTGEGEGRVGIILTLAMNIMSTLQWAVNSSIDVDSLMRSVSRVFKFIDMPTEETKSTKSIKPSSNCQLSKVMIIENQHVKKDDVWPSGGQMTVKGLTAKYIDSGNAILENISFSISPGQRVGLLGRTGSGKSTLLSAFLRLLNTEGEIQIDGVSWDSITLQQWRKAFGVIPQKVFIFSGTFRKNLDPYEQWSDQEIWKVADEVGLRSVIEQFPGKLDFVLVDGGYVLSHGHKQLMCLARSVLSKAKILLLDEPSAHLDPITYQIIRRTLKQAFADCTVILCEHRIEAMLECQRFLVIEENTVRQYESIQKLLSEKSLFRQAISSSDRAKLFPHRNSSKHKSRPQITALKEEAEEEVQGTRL
Experimental: Short-circuit current was measured in freshly isolated rabbit conjunctiva, as described^16 with modification. Rabbits were euthanized by injection of 150 mg/kg euthasol into the marginal ear vein. The entire eyeball with eyelids intact was removed from the orbit to preserve conjunctival epithelium integrity. Within 10 min a sheet of forniceal and palpebral conjunctiva was dissected, mounted onto a P2304 tissue slider (Physiologic Instruments, San Diego, CA), and placed into the Ussing chamber. The apical and basolateral chambers contained (in mM): 120 NaCl, 3 KCl, 1 CaCl2, 1 MgCl2, 10 glucose, 25 NaHCO3 and 5 HEPES, pH 7.4. […] Hemichambers were connected to a DVC-1000 voltage clamp (World Precision Instruments Inc., Sarasota, FL) via Ag/AgCl electrodes and 3 M KCl agar bridges.
In separate electrophysiological studies, CFTR activation was measured in freshly isolated conjunctiva ex vivo by short-circuit current analysis.

[10] = system: rabbits; assay: Schirmer Tear Test II after single topical dose (pharmacodynamics); type: in vivo, rabbit
Experimental: as §1
Serial STT measurements were done before and at 1, 3, 6, 9, 12 and 24 hours following application of a single 30-μL drop of Compound A formulation (or vehicle alone) into the conjunctival sac. Both eyes received the same treatment to control for potential contralateral effects of a given treatment. Pharmacokinetics and Tissue Distribution
Compound A was tested for its efficacy in augmenting tear fluid production in rabbits. Prior work identified a formulation (0.325% CMC in Ringer's solution containing 0.015% BAC and 1% DMSO) that stably solubilized Compound A and was effective when delivered topically to mice.^15 A single application of 3 nmol Compound A ([…] of a 100 µM solution) increased tear volume by ˜60% for at least 9 hours compared to vehicle (FIG. 3A). […] When 3 nmol of Compound A was delivered in a more viscous formulation containing 0.625% (instead of 0.3%) CMC, to potentially increase Compound A ocular surface residence time, compound efficacy was unchanged (FIG. 3C).

[11] = system: rabbits; assay: chronic administration, ocular toxicity (clinical examination, histology); type: in vivo; conditions: rabbit
Experimental: In chronic treatment studies, eyes were treated twice daily for 28 days as described above. STT, intraocular pressure (IOP), and central corneal thickness were measured on days 0, 7, 14, 21 and 28. Slit lamp examinations were performed on days 0, 14 and 28 by a board-certified ophthalmologist blinded to treatment status. STT was done one hour after the first treatment of the day (9 am). IOP was measured with a Tonolab rebound tonometer (Colonial Medical Supply, Windham, NH). Central corneal thickness was measured using the Corneo-Gage Plus 2 pachymeter (Sonogage Inc., Cleveland, OH). […] One minute later, photographs of the eye were taken with a digital camera and staining was evaluated according to a 12-point scale as described^17: each corneal quadrant was scored in a blinded fashion on a 3-point scale: grade 0, no staining; grade 1, sporadic staining (involving <25% of the total surface); grade 2, diffuse punctate staining (25-75%); and grade 3, coalesced punctate staining (≥75%). The total grade is reported as the sum of scores from all 4 quadrants, ranging from 0 to 12. Conjunctival congestion, chemosis, discharge, corneal haze or neovascularization, anterior chamber cellular reaction or flare, iris neovascularization, lens opacification or loss of red reflex, were each rated using a modified McDonald-Shadduck scale on a four-point scale, where zero is normal.
A subset of chronically treated eyes were enucleated with eyelids intact after transcardial perfusion with PBS followed by 4% paraformaldehyde, and left overnight in 4° C. in 30% sucrose. […] Cryosections (8 μm thickness) were stained with hematoxylin and eosin (H&E) using a standard protocol.

[12] = tissue levels by LC/MS following chronic administration; type: in vivo; conditions: rabbit, 3 nmol twice-daily for 28 days
Experimental: In chronic treatment studies, Compound A (3 nmol, or formulation control) was given twice daily (8 am and 4 pm) for 28 days. Two mL of blood was collected from the marginal ear vein in EDTA tubes. Rabbits were then euthanized using 150 mg/kg euthasol, and ocular tissues, serum and peripheral organs were collected. Using a surgical microscope, 150 μL of aqueous humor was collected through the peripheral cornea using a 25-gauge needle, and 300 μL of vitreous fluid was aspirated through the pars plana with a 23-gauge needle. Following transcardial perfusion with heparinized phosphate-buffered saline (PBS), eyes were enucleated with lids intact, and the cornea, iris/ciliary body, lens, bulbar, forniceal and palpebral conjunctiva, and retina of both eyes were dissected, weighed, homogenized in 1:4 mixture of water:ethyl acetate (10 mL/1 g tissue) and centrifuged (3000 rpm for 15 min). Plasma, aqueous and vitreous samples were each mixed with 3 volumes of ethyl acetate and centrifuged for 15 min at 13,200 rpm, and the supernatant was evaporated and re-dissolved in HPLC eluent (100 μL of 1:3 water:acetonitrile containing 0.1% formic acid) for LC/MS analysis. Also, brain, kidney, heart and liver were removed, weighed, mixed with 1:4 mixture of water:ethyl acetate (10 mL/1 g tissue), and homogenized. The homogenized samples were vortexed and centrifuged (3000 rpm for 15 min), and the ethyl acetate-containing supernatant was evaporated, and then re-dissolved in HPLC eluent for LC/MS analysis. The lower limit of detection for Compound A was ˜0.2 pg/mg of homogenized tissue or biological fluid, which was defined as giving a signal-to-noise ratio >3.

[13] = system: CFTR-deficient mice; conditions: cited from earlier work
[14] = molecular target: T1, CFTR; assay: open-circuit ocular surface potential difference (PD) in anesthetized rabbits, CFTR; type: in vivo; conditions: rabbit
Experimental: Open-circuit transepithelial potential difference (PD, in mV) at the ocular surface was measured continuously in anesthetized rabbits using a procedure modified from that established in mice. […] Rabbits were intubated and anesthetized with isoflurane, and respiratory rate, blood pressure and body temperature were monitored. For PD recording, solutions (see below) were serially perfused at 10 mL/min through PE-90 plastic tubing using a gravity multi-reservoir pinch-valve system (ALA Scientific, Westbury, NY) and a variable-flow peristaltic pump (medium flow model; Thermo Fisher Scientific, Fair Lawn, NJ). A probe catheter was fixed onto an adjustable stereotaxic frame with the tip immersed in solution contacting the ocular surface. Excess fluid was aspirated by continuous suction (low-powered wall vacuum) using ⅛-inch tubing (inner diameter 3/32 inch) positioned 3 mm from the orbit in order to maintain near-constant perfusate volume in contact with cornea, bulbar conjunctiva and palpebral conjunctiva without fluid runoff. The measuring electrode contacted the perfusion catheter and was connected to a high-impedance voltmeter (IsoMilivolt Meter; World Precision Instruments, Sarasota, FL). The reference electrode was grounded using a winged, 25-gauge needle filled with normal saline inserted subcutaneously in the abdomen. The measuring and reference electrodes consisted of Ag/AgCl with 3 M KCl agar bridges.
All solutions contained 10 M indomethacin to prevent CFTR activation by prostaglandins.

[15] = system: ENaC; assay: open-circuit ocular surface potential difference (PD) in anesthetized rabbits, ENaC; conditions: rabbit, normal Cl- solution with amiloride 100 μM
Experimental: Open-circuit transepithelial potential difference (PD, in mV) at the ocular surface was measured continuously in anesthetized rabbits using a procedure modified from that established in mice. […] Rabbits were intubated and anesthetized with isoflurane, and respiratory rate, blood pressure and body temperature were monitored. For PD recording, solutions (see below) were serially perfused at 10 mL/min through PE-90 plastic tubing using a gravity multi-reservoir pinch-valve system (ALA Scientific, Westbury, NY) and a variable-flow peristaltic pump (medium flow model; Thermo Fisher Scientific, Fair Lawn, NJ). A probe catheter was fixed onto an adjustable stereotaxic frame with the tip immersed in solution contacting the ocular surface. Excess fluid was aspirated by continuous suction (low-powered wall vacuum) using ⅛-inch tubing (inner diameter 3/32 inch) positioned 3 mm from the orbit in order to maintain near-constant perfusate volume in contact with cornea, bulbar conjunctiva and palpebral conjunctiva without fluid runoff. The measuring electrode contacted the perfusion catheter and was connected to a high-impedance voltmeter (IsoMilivolt Meter; World Precision Instruments, Sarasota, FL). The reference electrode was grounded using a winged, 25-gauge needle filled with normal saline inserted subcutaneously in the abdomen. […]

[16] = system: ENaC; assay: short-circuit current in freshly isolated rabbit conjunctiva, amiloride; conditions: amiloride 10 μM
Experimental: Short-circuit current was measured in freshly isolated rabbit conjunctiva, as described^16 with modification. Rabbits were euthanized by injection of 150 mg/kg euthasol into the marginal ear vein. The entire eyeball with eyelids intact was removed from the orbit to preserve conjunctival epithelium integrity. Within 10 min a sheet of forniceal and palpebral conjunctiva was dissected, mounted onto a P2304 tissue slider (Physiologic Instruments, San Diego, CA), and placed into the Ussing chamber. The apical and basolateral chambers contained (in mM): 120 NaCl, 3 KCl, 1 CaCl2, 1 MgCl2, 10 glucose, 25 NaHCO3 and 5 HEPES, pH 7.4. Solutions were bubbled with 95% O2/5% CO2 and maintained at 37° C. Hemichambers were connected to a DVC-1000 voltage clamp (World Precision Instruments Inc., Sarasota, FL) via Ag/AgCl electrodes and 3 M KCl agar bridges.

[17] = 25 picomol topical administration
[18] = rabbit, single topical dose of 3 nmol

Compound: CCN(CC)c1nc(Nc2ccccc2)nc(OC(C(F)(F)F)C(F)(F)F)n1 [Compound C]
- corneal epithelial disruption [1]: prevented corneal epithelial disruption
- pathology when administered after development of dry eye [1]: reversed pathology
- tear volume [1]: normalized tear volume
- duration of increase in tear volume [2, 17]: 8 h
- tear volume [2, 17]: sustained increase in tear volume
- extent of CFTR activation [3]: fully activated CFTR
- pEC50 [3]: ~7.52

Compound: O=c1ccn([C@@H]2O[C@H](COP(=O)(O)OP(=O)(O)OP(=O)(O)OP(=O)(O)OC[C@H]3O[C@@H](n4ccc(=O)[nH]c4=O)[C@H](O)[C@@H]3O)[C@@H](O)[C@H]2O)c(=O)[nH]1 [diquafosol]
- efficacy in dry eye [4]: did not show efficacy

- time at predicted therapeutic concentrations in tear fluid ([6]; 3-nmol dose, concentrations estimated using tear volumes from STT): at least several hours
- Compound A recovered from tear fluid over time ([6]; single topical dose of 3 nmol, three eye washes): approximate exponential decline
- change in short-circuit current ([9]; 1 and then 10 μM Compound A after forskolin 25 nM): further increased
- pEC50 ([9]; rabbit conjunctiva ex vivo, data at 1 vs. 10 μM, read-out: apparent EC50 of CFTR activation (short-circuit current)): > 6.00
- level in aqueous and vitreous fluid, lens and iris/ciliary body [12]: near or below the limit of detection
- level in blood, heart, brain, liver and kidney [12]: below the limit of detection
- level in vitreous fluid [12]: not detected
- rank of levels in ocular tissues [12]: cornea>conjunctiva>>retina
- concentration at 28 days ([12]; retina, topical, read-out: level in retina, equivalent concentration): < 10 nM
- time to maximal CFTR activation at the ocular surface (PD) ([14]; after exposure): within a few minutes
- change in ocular surface PD ([14]; low Cl- + amiloride, Compound A 1 and 10 μM): substantial depolarization
Compound: CNc1nc(Nc2ccccc2)nc(OCC(F)(F)C(F)F)n1 [Compound A, N-Methyl-N′-phenyl-6-(2,2,3,3-tetrafluoropropoxy)-1,3,5-triazine-2,4-diamine]
- elevation of total cellular cAMP [5]: without detectable elevation
- hepatic metabolism [7]: rapidly metabolized by the liver; also recorded: rapid predicted hepatic metabolism
- tear volume (STT) [8]: augmented tear volume in a sustained fashion without tachyphylaxis
- increase in tear fluid volume ([10]; from STT wetting using reported relationship between STT wetting and volume): 2.7 µL
- compound efficacy in more viscous formulation ([10]; rabbit, 3 nmol, 0.625% (instead of 0.3%) CMC): unchanged
- increase in tear volume compared to vehicle ([10]; rabbit, single application of 3 nmol, 0.3% CMC): ~60%
- tear production ([10]; rabbit, single dose 0.75 nmol): no significant increase
- activity on tear production ([10]; rabbit, single dose 1.5 nmol): reduced duration of activity
- augmentation in tear production by STT, average over 9 hours [10, 18]: 5.3 mm
- duration of increase in tear volume / tear secretion [10, 18]: at least 9 hours
- IOP, vehicle vs. treated eyes ([11]; 3 nmol twice-daily for 28 days): No significant differences
- Lissamine green staining ([11]; 3 nmol twice-daily for 28 days): no injury to the ocular surface
- central corneal thickness, vehicle vs. treated eyes ([11]; 3 nmol twice-daily for 28 days): No significant differences
- slit-lamp evaluation ([11]; 3 nmol twice-daily for 28 days): no evidence of conjunctival hyperemia, anterior chamber inflammation, or lens opacification
- histology of cornea, conjunctiva, lens, ciliary body, retina ([11]; day 28): no pathological changes
- acute ocular irritation (blinking, behavior) ([11]; following topical administrations): No apparent acute ocular irritation
- duration of doubled tear volume ([2]; delivered topically): four
- tear volume ([2]; delivered topically): doubled tear volume
- effect in CFTR-deficient mice [13]: without effect; also recorded: absence of Compound A effect
- extent of CFTR activation [3]: fully activated CFTR
- pEC50 [3]: ~6.60
- potency of CFTR activation ([3]; prior studies): nanomolar potency

- effect on the increases in short-circuit current ([9]; inhibitor added last): inhibited
- effect on the PD changes ([14]; CFTRinh-172 10 μM in final perfusion solution): largely reversed
Compound: 3-[(3-Trifluoromethyl)phenyl]-5-[(4-carboxyphenyl)methylene]-2-thioxo-4-thiazolidinone [CFTRinh-172, reference compound]

Compound: N=C(N)NC(=O)c1nc(Cl)c(N)nc1N [amiloride]
- change in ocular surface PD [15]: initial depolarization
- effect on short-circuit current [16]: no effect

From patent US11839616B2, “Ocular pharmaceutical compositions” (THE REGENTS OF THE UNIVERSITY OF CALIFORNIA, priority 2017, dated 2023)
